# From patent US7026318B2 (Shionogi & Co., Ltd., priority 2000, dated 2006)
# Like-named read-outs stand apart in the source and are kept apart here.
# How the values were obtained:
# [1] = target: human type I enzyme (sPLA2) (Homo sapiens, UniProt P04054); test: Inhibition test of human secretory phospholipase A2, chromogenic assay, type I enzyme; format: biochemical
# [2] = target: T1, human type II enzyme (sPLA2) (Homo sapiens, UniProt P14555); test: Inhibition test of human secretory phospholipase A2, chromogenic assay, type II enzyme; format: biochemical
# T1 sequence (P14555 21-144): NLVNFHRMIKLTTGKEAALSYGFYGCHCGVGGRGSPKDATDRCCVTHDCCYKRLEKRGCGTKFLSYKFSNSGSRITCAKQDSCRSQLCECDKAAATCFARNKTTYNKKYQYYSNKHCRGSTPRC
# human type X sPLA2 [3] = target: T2, human type X sPLA2 (Homo sapiens, UniProt O15496); test: Inhibition test of human secretory phospholipase A2, chromogenic assay, type X enzyme; format: biochemical
# T2 construct: made in house; unpurified culture supernatant
# T2 sequence (O15496 43-165): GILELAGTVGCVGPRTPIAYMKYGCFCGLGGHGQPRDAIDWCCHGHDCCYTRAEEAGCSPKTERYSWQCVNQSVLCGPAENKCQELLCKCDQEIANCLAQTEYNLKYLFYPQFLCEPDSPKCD
# human type V sPLA2 = target: T3, human type V sPLA2 (Homo sapiens, UniProt P39877); test: Inhibition test of human secretory phospholipase A2, chromogenic assay, type V enzyme; format: biochemical
# T3 construct: made in house; unpurified culture supernatant
# T3 sequence (P39877 21-138): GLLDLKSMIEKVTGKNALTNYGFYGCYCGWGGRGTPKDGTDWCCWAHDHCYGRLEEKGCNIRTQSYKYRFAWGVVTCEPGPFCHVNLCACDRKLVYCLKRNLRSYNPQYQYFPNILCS
# human type X sPLA2 [4] = target: T2, human type X sPLA2; test: Human type X sPLA2-induced oleic acid release in human colon carcinoma HT-29 cells; format: cell-based; conditions: compound 10 μM, 100 nM human type X sPLA2, 30 min, percentage of the increase by type X sPLA2 (no treatment group = 100)
# Experimental: Examination 15: Effects of sPLA2 Inhibitors on Human Type X sPLA2-Induced Oleic Acid Release in Human Colon Calcinoma Cell Lines, HT-29 Cells.
# Human colon calcinoma cell lines, HT-29 cells (obtained from ATCC) were cultured in DMEM supplemented with 10% fetal calf serum. The cells were washed by phosphate-buffered saline (PBS), detached from culture plates by treatment with trypsin/EDTA solution and further washed by PBS. The resulting cells were resuspended in Hanks' buffered saline containing 0.1% bovine serum albumin (BSA) at a density of 12.5×10^6 cells/mL. Aliquots of the cell suspension (0.4 ml) were transferred into polypropylene tubes and test compounds dissolved in DMSO solution (final concentration; 10 μM) were added. After preincubation for 10 min at 37° C., 100 nM purified human type X sPLA2 enzyme (Hanasaki et al J. Biol. Chem. (1999) 274, 34203–34211) was added (final volume of 0.5 mL). After incubation for 30 min at 37° C., the reaction was stopped by the addition of 2 ml Dole's reagent (heptane:2-propanol:1M H2SO4=10:40:1, v/v/v).
# human type X sPLA2 [5] = target: T2, human type X sPLA2; test: Type X sPLA2-induced PGE2 production in human colon carcinoma HT-29 cells; format: cell-based; conditions: compound 10 μM; TNF-α-treated HT-29 cells; 100 nM human type X sPLA2, 3 h; percentage of PGE2 produced by type X sPLA2 (no treatment group = 100)
# Experimental: Examination 16: Effects of sPLA2 Inhibitors on Type X sPLA2-Induced PGE2 Production in Human Colon Carcinoma Cell Lines, HT-29 Cells.
# HT-29 cells were seeded into 24-well plates at a density of 2.5×10^5 cells/well. After incubation for 24 h, the cells were washed three times with PBS and incubated with 30 ng/mL of recombinant human tumor necrosis factor-α (R&D Systems, Inc.) in DMEM medium supplemented with 10% fetal bovine serum for 18 h at 37° C. After washing with PBS, the cells were preincubated with or without test compounds (at a final concentration of 10 μM; dissolved in DMSO) in Hanks' buffered saline containing 0.1% BSA for 10 min at 37° C., and then stimulated with 100 nM purified human type X sPLA2 enzyme in a final volume of 0.5 mL. After incubation for 3 h at 37° C, the culture supernatant was collected following the centrifugation for the removal of floating cells, and its PGE2 content was quantified with an enzyme-immunoassay kit (Cayman Chemicals Co.). From each data, the value in the absence of type X sPLA2 was subtracted. The amount of PGE2 in the presence of each test compound was expressed as the percentage of the PGE2 content produced by the addition of type X sPLA2 enzyme.
# human type X sPLA2 [6] = target: T2, human type X sPLA2; test: Type X sPLA2-induced fatty acid release from isolated human lipoproteins (LDL); format: biochemical; conditions: read-out: % of Inhibition (10 μM)
# Experimental: Examination 17: Effects of sPLA2 Inhibitors on Type X sPLA2-Induced Fatty Acid Release From Isolated Human Lipoproteins.
# LDL was isolated from human plasma by sequential ultracentrifugation method (Havel et al. J. Clin. Invest. 34,1345–1353 (1955)). LDL (0.5 mg/mL) was incubated with 10 nmol/L of human type X sPLA2 in the assay mixture containing 12.5 mmol/L Tris-HCl buffer (pH 8.0), 125 mg/L bovine serum albumin and 1 mmol/L calcium chloride for 4 hr at 37° C. Fatty acids released from lipoprotein were extracted by Dole's method (Dole et al. J. Biol. Chem. 235, 2595–2599 (1960)), labeled with 9-anthryldiazomethane according to a known method (Hanasaki et al., J. Biol. Chem. 274, 34203–34211 (1999)) and measured by detecting the fluorescence of labeled fatty acids using reverse-phase high performance chromatography (LiChroCART 125-4 Superspher 100 RP-18 column (Merck). For the inhibition assay of drugs, sPLA2 inhibitors (final concentration of 10 μM) were added at almost the same time as the addition of sPLA2 into the reaction solution. The results are presented in Table 10.
# [7] = recombinant human sPLA2 type I, chromogenic assay, 30 min, read-out: IC50 type I
# [8] = human sPLA2 type II, chromogenic assay, 30 min, read-out: IC50 type II
# [9] = human sPLA2 type X (CHO supernatant), chromogenic assay, 30 min, read-out: IC50 type X
# [10] = human sPLA2 type V (CHO supernatant), chromogenic assay, 45 min, read-out: IC50 type V
# human type I enzyme (sPLA2), sequence (P04054 23-148): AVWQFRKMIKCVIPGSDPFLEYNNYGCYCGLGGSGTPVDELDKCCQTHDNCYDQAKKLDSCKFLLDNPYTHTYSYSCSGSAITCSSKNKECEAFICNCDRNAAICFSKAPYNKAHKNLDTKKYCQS
melting point,SMILES,"IC50 [1, 7]","IC50 [2, 8]",IC50 (human type V sPLA2; [10]),IC50 (human type X sPLA2 [3]),further results
193 to 195 °C,Cc1cn2c(Cc3ccccc3)c(CC(C)C)c(C(=O)C(N)=O)c2c(OCC(=O)NS(=O)(=O)c2ccccc2)n1 [Compound I-15],> 700 nM,> 1000 nM,> 1000 nM,–,IC50 (human type X sPLA2 [3]; [9]): 37 nM
211 to 212 °C,Cc1cn2c(Cc3ccccc3)c(CC(C)C)c(C(=O)C(N)=O)c2c(OCC(=O)NS(C)(=O)=O)n1 [Compound I-16],–,–,–,–,–
214 to 215 °C,CCS(=O)(=O)NC(=O)COc1nc(C)cn2c(Cc3ccccc3)c(CC(C)C)c(C(=O)C(N)=O)c12 [Compound I-17],–,–,–,–,–
205 to 207 °C,CCCS(=O)(=O)NC(=O)COc1nc(C)cn2c(Cc3ccccc3)c(CC(C)C)c(C(=O)C(N)=O)c12 [Compound I-18],–,–,–,–,–
196 to 198 °C,Cc1cn2c(Cc3ccccc3)c(CC(C)C)c(C(=O)C(N)=O)c2c(OCC(=O)NS(=O)(=O)C(C)C)n1 [Compound I-19],–,–,–,–,–
–,CC(C)Cc1c(C(=O)C(N)=O)c2c(OCC(=O)NS(=O)(=O)c3ccccc3)cccc2n1Cc1ccccc1 [Compound I-21],–,–,–,8 nM,Oleic acid release (human type X sPLA2 [4]): 11.8 ± 0.6 %; PGE2 production (human type X sPLA2 [5]): −6.6 ± 7.1 %
–,CC(C)Cc1c(C(=O)C(N)=O)c2c(OCC(=O)NS(C)(=O)=O)cccc2n1Cc1ccccc1 [Compound I-23],> 700 nM,> 1000 nM,> 1000 nM,6 nM,Oleic acid release (human type X sPLA2 [4]): −2.0 ± 5.1 %; PGE2 production (human type X sPLA2 [5]): 9.0 ± 28.1 %
–,CC(C)Cc1c(C(=O)C(N)=O)c2c(OCC(=O)NS(=O)(=O)C(F)(F)F)cccc2n1Cc1ccccc1 [Compound I-30],–,–,–,–,"inhibition at 10 µM (human type X sPLA2 [6]; compound 10 μM, human LDL 0.5 mg/mL, 10 nmol/L human type X sPLA2, 4 hr at 37° C.): 97.5%"
–,Cc1cc(OCC(=O)NS(=O)(=O)c2ccccc2)c2c(C(=O)C(N)=O)c(CC(C)C)c(Cc3ccccc3)n2n1 [Compound I-32],> 700 nM,> 1000 nM,> 1000 nM,–,IC50 (human type X sPLA2 [3]; [9]): 46 nM
189 to 190 °C,CC(C)Cc1c(CC(N)=O)c2c(OCC(=O)NS(=O)(=O)C(C)C)cccc2n1Cc1ccccc1 [Compound I-34],–,–,–,–,–
188 to 190 °C,Cc1cn2c(Cc3ccccc3)c(CC(C)C)c(CC(N)=O)c2c(OCC(=O)NS(C)(=O)=O)n1 [Compound I-35],–,–,–,–,–
162 to 163 °C,Cc1cn2c(Cc3ccccc3)c(CC(C)C)c(CC(N)=O)c2c(OCC(=O)NS(=O)(=O)C(C)C)n1 [Compound I-36],–,–,–,–,–

SMILES,melting point,"IC50 [1, 7]","IC50 [2, 8]",IC50 (human type V sPLA2; [10]),IC50 (human type X sPLA2 [3]),further results
CC(C)Cc1c(C(=O)C(N)=O)c2c(OCC(=O)NS(=O)(=O)c3ccccc3)cccc2n1Cc1ccc(F)cc1 [Compound I-22],172 to 173 °C,–,–,–,8 nM,IC50 [1]: > 700 nM; IC50 [2]: > 1000 nM; inhibition at 10 µM (human type X sPLA2 [6]): 91.7%; IC50 (human type V sPLA2): > 1000 nM
Cc1cc(OCC(=O)NS(=O)(=O)c2ccccc2)c2c(C(=O)C(N)=O)c(CC(C)C)n(Cc3ccccc3)c2c1 [Compound I-24],145 to 147 °C,> 700 nM,> 1000 nM,> 1000 nM,23 nM,–
Cc1cc(OCC(=O)NS(C)(=O)=O)c2c(C(=O)C(N)=O)c(CC(C)C)n(Cc3ccccc3)c2c1 [Compound I-25],211 to 214 °C,> 700 nM,> 1000 nM,> 1000 nM,7 nM,–
